Measurements: paper PMC11513920, “Building Metabolically Stable and Potent Anti-HIV Thioether-Lipid Analogues of Tenofovir Exalidex: A thorough Pharmacological Analysis” (Journal of Medicinal Chemistry, 2024)
Values joined by “and” are separate entries in the source; they are usually repeats but may differ in a detail not shown here. Identical values can stand only once. Like-named read-outs stand apart in the source and are kept apart here.

Legend:
[1] = Mouse plasma pharmacokinetics after intravenous dose; type: in vivo, male C57BL/6 mice; details: i.v. 3 mg/kg
Experimental: (§1) To compare the in vivo PK profiles to TXL and our previously reported drug lead 1 (Tables S19 and S26),[39] one group of male C57BL/6 mice were administered a single oral dose (p.o., 10 mg/kg) of 2a, 16g, or 16h (refer to Experimental Methods). Additionally, a separate group of mice were given a single intravenous dose (i.v., 3 mg/kg) of each prodrug to obtain plasma clearance (Cl), volume of distribution (Vd), and oral bioavailability data. Blood was sampled at 8 time points over 8 h (i.v.) or 24 h (p.o.) postdose, and plasma was isolated via centrifugation. Tissues (liver, kidney, and brain) were also harvested and homogenized at 3 time points over 24 h after oral dose. The concentrations of prodrug and TFV metabolite in each of these samples was then quantified using LC–MS/MS methodology.
(§2) Healthy male C57BL/6 mice (8–12 weeks old) weighing 20–30 g were procured from Global, India. Three mice were housed in each cage. Temperature and humidity were maintained at 22 ± 3 °C and 30–70%, respectively, and illumination was controlled to provide for 12 h light and 12 h dark cycles. Temperature and humidity were recorded by an autocontrolled data logger system. All animals were provided a laboratory rodent diet (Envigo Research private Ltd., Hyderabad). Reverse osmosis H2O treated with ultraviolet light was provided ad libitum.
(§3) Male mice were divided into two groups (n = 18 total, n = 9 per treatment group, n = 3 per time point, sparse sampling). One group was intravenously administered a solution of 2a, 16g, and 16h in 10% PEG-300, 10% Solutol HS-15, and 80% saline at 3 mg/kg with a dosing volume of 5 mL/kg. The second group was administered a solution of 2a, 16g, and 16h in 10% EtOH and 90% olive oil at 10 mg/kg via oral gavage with a dosing volume of 10 mL/kg.
(§4) Blood samples (approximately 60 μL) were collected from retro-orbital plexus under light isoflurane anesthesia such that the samples were obtained predose, as well as at eight time points post dose: 0.1, 0.25, 0.5, 1, 2, 4, 6, and 8 (i.v.) and 0.25, 0.5, 1, 2, 4, 8, 12, and 24 h (p.o.). Immediately after blood collection, plasma samples were harvested by centrifugation at 4000 rpm and 4 °C for 10 min and stored at −70 °C until LC–MS/MS analysis. Following blood collection from p.o. group, liver, kidney, and brain samples were collected (n = 3 per treatment group per time point) at 1, 4, and 24 h post dose. After isolation, tissue samples were rinsed three times with ice-cold saline and dried with blotting paper. Next, the tissue samples were homogenized using ice-cold PBS (pH = 7.4), and the resulting homogenates were stored below −70 °C until LC-MS/MS analysis. The total homogenate volume was 3 times the brain weight and 5 times the liver and kidney weight.
(§5) Areas under the concentration–time curves (AUC0–8h and AUC0–24h) were calculated via the linear trapezoidal rule[65] using GraphPad Prism v9. Furthermore, terminal elimination rate constants k were determined using linear regression (slope = −k) of the terminal portion of semilog-transformed concentration–time curves (Figures S44, S45, S47, S48, S50, and S51).

[2] = Mouse plasma pharmacokinetics after oral dose; type: in vivo, male C57BL/6 mice
Experimental: as §1, §2, §3, §4, §5

[3] = Mouse tissue (liver, kidney, brain) pharmacokinetics after oral dose; type: in vivo, male C57BL/6 mice; details: for concentration at 1 h / concentration at 4 h / concentration at 24 h / Cmax at 24 h / Tmax / AUC(0-t) at 24 h: male, C57BL/6, mouse, po; for Cmax at 24 h / Tmax / AUC(0-t) at 24 h: prodrug; for AUC(0-t) at 24 h: read-out: AUC0–24h
Experimental: as §1, §2, §3, §4, §5

[4] = HepaRG cellular metabolic stability; details: human, other cell line
Description: Naturally, due the metabolic complexity of HepaRG cells, we specifically analyzed prodrug cellular uptake and stability, as represented by Cmax and intrinsic clearance (Clint,u) accordingly (Figure 7 and Table 9).
The HepaRG cell line (HPRGC10, Thermo Fisher Scientific) was used to evaluate the cellular permeability and metabolic stability for select final compounds in vitro. The cells were initially thawed with working media composed of HepaRG Thaw, Plate, & General Purpose Medium Supplement (HPRG670), Williams Medium E (100 mL), and GlutaMax (1 mL), all purchased from Thermo Fisher Scientific. […] After the thawing medium was aspirated from each well, the cells were cultured for an additional 6 days with working media consisting of HepaRG Maintenance/Metabolism Medium Supplement (HPRG720), Williams Medium E (500 mL), and GlutaMax (1 mL), all purchased from Thermo Fisher Scientific. Upon completing the 7-day culture period, HepaRG cells were plated in enough wells to allow for duplicate analysis of prodrugs in two independent cellular uptake or metabolic stability experiments. All studied compounds were formulated with human serum albumin (HSA, 5:1 compound to HSA molar ratio) and subsequently diluted to a 20 μM final concentration with assay medium composed of serum-free INVITROGRO HI Medium and TORPEDO Antibiotic Mix purchased from BioIVT. For cellular uptake determinations, the maintenance/metabolism medium was first aspirated from each well, and then the plated cells were spiked with 1.0 mL of test compound stock solution. Subsequently, the plate was incubated at 37 °C under 5% CO2 environment over the desired time course (seven data points/compound). Blank wells not treated with prodrug were included in assay runs as controls and initial time points (0 min). At each time point, the test compound solution was removed from the appropriate wells, and the plated cells were washed with 1.0 mL of DPBS twice. The HepaRG cells were then extracted with 500 μL of cold ISTD solution (1 μM 7-ethoxy-d5-coumarin in 70/30 MeOH/H2O), and the quenched aliquots were centrifuged at 15,000 g for 10 min at 4 °C. […] After obtaining prodrug Cmax and Tmax values from the cellular uptake assay, HepaRG metabolic stability was then assessed. Following the initial 7-day culture procedure, the maintenance/metabolism medium was aspirated from each well, and the plated cells were spiked with 1.0 mL of test compound stock solution. […] The test compound solution was then removed from each well and replaced with untreated dilution medium (i.e., serum-free INVITROGRO HI Medium and TORPEDO Antibiotic Mix), initializing the stability determination. The HepaRG plate was once more incubated at 37 °C under 5% CO2 atmosphere over the desired time course (nine data points/compound), and sample preparation and analysis were handled in identical fashion to cellular uptake experiments.

[5] = Cellular cytotoxicity (cell viability, CellTiter 96 or resazurin); details: human, CC50, HEK293T cells, compounds formulated with HSA (5:1)
Experimental: (§6) Second, HIV IC50 and cellular CC50 were determined with a pseudoviral, whole (HEK293T) cell, nonreplicative HIV assay, using the HIV-1 subtype C strain MJ4 (refer to Experimental Methods). To account for the unique amphiphilic properties of TXL and the novel HTP-based prodrugs, all compounds were formulated in a human serum albumin (HSA) solution (5:1 drug:protein).
(§7) Assessment of cytotoxicity and antiviral activity of all final compounds in vitro was conducted according to previously reported procedures.[39] In summary, human embryonic kidney (HEK293T) cells maintained in high glucose (25 mM), Dulbecco’s modified Eagle’s medium (DMEM) supplemented with fetal bovine serum (10%), sodium pyruvate (1 mM), L-glutamine (2 mM), HEPES (25 mM), and gentamicin (50 μg/mL) were used for determinations. The cells were maintained in an incubator at 37 °C under 5% CO2 in a humidified atmosphere. For both cytotoxicity and antiviral screening, all compounds were evaluated in duplicate in at least two independent experiments. All final compounds were formulated with human serum albumin (HSA, 5:1 compound to HSA molar ratio) and subsequently diluted with complete DMEM to 200 μM. Fifty microliters of test compound serial dilutions (3-fold) were prepared in 96-well culture plates, after which 50 μL of HEK293T cells (2 × 10^4 cells/well) was added. […] Cytotoxicity was then assessed by quantifying cell viability using the CellTiter 96 Aqueous One Solution Cell Proliferation Assay (Promega, Madison, WI) or resazurin sodium salt (cat# R7017, Merck, Darmstadt, Germany).[61] […] Antiviral activity was then assessed using a single-cycle, nonreplicating, envelope deleted HIV pseudoviral in vitro assay.[62],[63] The assay relies on the introduction of the firefly luciferase gene into HEK293T cells through infection with HIV-like viral particles, containing Reverse Transcriptase (RT) and Integrase (IN) from the HIV-1 subtype C strain MJ4.[64] The expression of the luciferase in the cells is directly proportional to the level of infection by the HIV-like viral particles and can be used to assess the inhibition of HIV-1 RT and IN. To evaluate anti-HIV activity, 3-fold serial dilutions of all final compounds were prepared in 50 μL over the noncytotoxic concentration range (as determined from the cytotoxicity screens described above) in 96-well culture plates. HEK293T cells (2 × 10^4 cells/well) and HIV-like viral particles, standardized to produce a luminescence signal of 1 × 10^6 relative light units (RLUs) in the growth medium only control, were combined, and 50 μL was added to the wells containing serially diluted test compounds. […] The expression of luciferase was subsequently quantified by adding 100 μL of the Bright-Glo Luciferase Assay substrate (Promega, Madison, WI) to each well of the 96-well plates. After incubation at rt for 3 min, luminescence was quantified on the GloMax Explorer Multimode Microplate Reader (Promega, Madison, WI).

HEK293T cells = assay: as above; details: HEK293T cells, 48 h, compounds formulated with HSA (5:1)
Experimental: as §6, §7

[6] = male, C57BL/6, mouse, iv, prodrug
[7] = male, C57BL/6, mouse, po, plasma, prodrug, p.o. 10 mg/kg
[8] = brain, p.o. 10 mg/kg, read-out: mean prodrug concentration in brain
[9] = kidney, p.o. 10 mg/kg, read-out: mean prodrug concentration in kidney
[10] = liver, p.o. 10 mg/kg, read-out: mean prodrug concentration in liver

Compound: CCCCCCCCCCCCCCCCSCCCOP(=O)(O)CO[C@H](C)Cn1cnc2c(N)ncnc21.N [2a]
- k (terminal elimination rate constant) ([1]; 3 mg/kg): 0.4666 and 0.467
- Vd at 8 h ([1]; male, C57BL/6, mouse, iv): 18.9 L/kg
- clearance ([1]; male, C57BL/6, mouse, iv): 147 mL/min/kg
- half-life ([1]; male, C57BL/6, mouse, iv): 1.49 h
- concentration at 0.1 h ([1]; male, C57BL/6, mouse, iv, 0.1 h, read-out: mean prodrug concentration in plasma): 2060 ng/mL
- concentration at 0.25 h ([1]; male, C57BL/6, mouse, iv, 0.25 h, read-out: mean prodrug concentration in plasma): 320 ng/mL
- concentration at 0.5 h ([1]; male, C57BL/6, mouse, iv, 0.5 h, read-out: mean prodrug concentration in plasma): 134 ng/mL
- concentration at 1 h ([1]; male, C57BL/6, mouse, iv, 1 h, read-out: mean prodrug concentration in plasma): 57.1 ng/mL
- concentration at 2 h ([1]; male, C57BL/6, mouse, iv, 2 h, read-out: mean prodrug concentration in plasma): 8.68 ng/mL
- concentration at 4 h ([1]; male, C57BL/6, mouse, iv, 4 h, read-out: mean prodrug concentration in plasma): 3.75 ng/mL
- concentration at 6 h ([1]; male, C57BL/6, mouse, iv, 6 h, read-out: mean prodrug concentration in plasma): 3.41 ng/mL
- concentration at 8 h ([1]; male, C57BL/6, mouse, iv, 8 h, read-out: mean prodrug concentration in plasma): 1.21 ng/mL
- Cmax at 8 h [1, 6]: 2060 ng/mL
- Tmax at 8 h [1, 6]: 6 min
- AUC(0-t) at 8 h ([1]; male, C57BL/6, mouse, iv, prodrug, read-out: AUC0–8h): 340 ng·h/mL
- bioavailability ([2]; male, C57BL/6, mouse, plasma, oral, p.o. 10 mg/kg vs i.v. 3 mg/kg, read-out: %F (oral bioavailability)): 20%
- bioavailability at 24 h ([2]; male, C57BL/6, mouse, plasma, po, p.o. 10 mg/kg vs i.v. 3 mg/kg, read-out: %F (oral bioavailability)): 19.3%
- concentration at 0.25 h ([2]; male, C57BL/6, mouse, plasma, po, p.o. 10 mg/kg, 0.25 h, read-out: mean prodrug concentration in plasma): 29.6 ng/mL
- concentration at 0.5 h ([2]; male, C57BL/6, mouse, plasma, po, p.o. 10 mg/kg, 0.5 h, read-out: mean prodrug concentration in plasma): 51.8 ng/mL
- concentration at 1 h ([2]; male, C57BL/6, mouse, plasma, po, p.o. 10 mg/kg, 1 h, read-out: mean prodrug concentration in plasma): 73.3 ng/mL
- concentration at 2 h ([2]; male, C57BL/6, mouse, plasma, po, p.o. 10 mg/kg, 2 h, read-out: mean prodrug concentration in plasma): 48 ng/mL
- concentration at 4 h ([2]; male, C57BL/6, mouse, plasma, po, p.o. 10 mg/kg, 4 h, read-out: mean prodrug concentration in plasma): 8.34 ng/mL
- concentration at 8 h ([2]; male, C57BL/6, mouse, plasma, po, p.o. 10 mg/kg, 8 h, read-out: mean prodrug concentration in plasma): 7.1 ng/mL
- concentration at 12 h ([2]; male, C57BL/6, mouse, plasma, po, p.o. 10 mg/kg, 12 h, read-out: mean prodrug concentration in plasma): 7.6 ng/mL
- half-life at 24 h ([2]; male, C57BL/6, mouse, po, plasma, p.o. 10 mg/kg): 3.49 h
- Cmax at 24 h [2, 7]: 73.3 ng/mL
- Tmax [2, 7]: 1 h
- AUC(0-t) at 24 h ([2]; male, C57BL/6, mouse, po, plasma, prodrug, p.o. 10 mg/kg, read-out: AUC0–24h): 219 ng·h/mL
- mean TFV concentration in plasma ([2]; p.o. 10 mg/kg of prodrug, 0.25 h, LLOQ 4.84 ng/mL): BLQ
- mean prodrug concentration in plasma ([2]; p.o. 10 mg/kg, 24 h, BLQ = below LLOQ (0.58 ng/mL 2a, 0.62 ng/mL 16g)): BLQ
- Vd ([2]; plasma, p.o. 10 mg/kg): 44.4 L/kg
- k (terminal elimination rate constant) ([2]; plasma, p.o. 10 mg/kg, 10 mg/kg): 0.1985 and 0.199
- TFV in brain tissue ([3]; brain, 1, 4 and 24 h after p.o. 10 mg/kg of prodrug, LLOQ 4.84 ng/mL (9.67 for 16h)): BLQ
- concentration at 1 h [3, 8]: 43.8 ng/mL
- concentration at 4 h [3, 8]: 2.19 ng/mL
- concentration at 1 h [3, 9]: 581 ng/mL
- concentration at 4 h [3, 9]: 385 ng/mL
- concentration at 24 h ([3]; kidney, p.o. 10 mg/kg, 24 h, read-out: mean prodrug concentration in kidney): 44.4 ng/mL
- concentration at 1 h [3, 10]: 1250 ng/mL
- concentration at 4 h [3, 10]: 395 ng/mL
- concentration at 24 h ([3]; liver, p.o. 10 mg/kg, 24 h, read-out: mean prodrug concentration in liver): 3.95 ng/mL
- Cmax at 24 h ([3]; brain, p.o. 10 mg/kg): 43.8 ng/mL
- Tmax ([3]; brain, p.o. 10 mg/kg): 1 h
- AUC(0-t) at 24 h ([3]; brain, p.o. 10 mg/kg): 69 ng·h/mL
- Cmax at 24 h ([3]; kidney, p.o. 10 mg/kg): 581 ng/mL
- Tmax ([3]; kidney, p.o. 10 mg/kg): 1 h
- AUC(0-t) at 24 h ([3]; kidney, p.o. 10 mg/kg): 5740 ng·h/mL
- Cmax at 24 h ([3]; liver, p.o. 10 mg/kg): 1250 ng/mL
- Tmax ([3]; liver, p.o. 10 mg/kg): 1 h
- AUC(0-t) at 24 h ([3]; liver, p.o. 10 mg/kg): 6450 ng·h/mL
- mean prodrug concentration in brain ([3]; p.o. 10 mg/kg, 24 h, BLQ = below limit of quantitation): BLQ
- hepatocyte CLint at 20 μM ([4]; HepaRG Clint,u, calculated from cellular t1/2): 14.1 µL/min/1e6 cells
- half-life at 20 μM ([4]; HepaRG t1/2, after 3 h loading at 20 μM, 37 °C): 1.49 ± 0.00667 h
- CC50 at 48 h [5]: 50 µM
- CC50 (HEK293T cells): 49.8 ± 2.9 µM
